Measured values: patent US20260232578A1, “COMPOSITIONS AND METHODS FOR TRANSMUCOSAL ABSORPTION” (Tonix Pharma Limited, priority 2012, published 2026)
Structures can show the parent of a compound that is named as a salt. Where two headings read alike, the source gives them in different places.

Key:
[1] = 25° C.; cited from earlier work
[2] = Protocol: The (KH2PO4) solution was prepared according to the current USP (USP 34) (Table 25). Briefly, 50 mL of 0.2 M monobasic potassium phosphate (KH2PO4) was mixed with 39.1 mL of 0.2 M NaOH, and water was added to bring the solution to a final volume of 200 mL. During the test, the change in the pH of the solution also was measured for each addition.
in vivo [3] = details: beagle, dog; for AUC(0-t): AUCt
Protocol: Each dog was sampled at pre-dose before and after Propofol (when possible) and at 5, 10 and 20 minutes post-dose.

in vivo [4] = details: female, beagle, dog, 0.14 mg/kg
Protocol: The protocol was designed as outlined in Table 23.
The method requires a lithium heparinized plasma sample volume of 200 μl. The extraction is a liquid liquid extraction with hexane, and the extracts are injected using an HPLC system and an […] (Applied Biosystems) for the MS/MS detection, with a “Onyx monolithic Phenomenex C18 100×3.0 mm” column.
Concentrations of the samples are calculated using Watson® 7.2.0.03 directly from chromatograms after automatic integration by Analyst® 1.5.1 and expressed as ng/mL. Mean plasma concentrations will be calculated (when calculable, i.e. n>2) using individual concentrations and will be expressed with the corresponding standard deviation value and variation coefficients (when calculable, i.e. n>3) (with CV(%)=(SD/mean)×100). The individual plasma concentrations are tabulated for each dog and scheduled sampling time. Concentrations below the LLOQ are designated as “BLQ.” All BLQ concentrations are substituted by zero for calculation of the descriptive statistics of the concentrations.
Pharmacokinetic analysis is carried out using […]® (Version 4.3 (Thermo Electron Corporation)). An independent model (non compartmental analysis) is used. All BLQ values in the absorption phase are substituted by zero, except for BLQ values between evaluable concentrations, which are treated as missing values, before the calculation of the pharmacokinetic variables. The terminal BLQ values are ignored. The following pharmacokinetic parameters are calculated:
5 non-naive female dogs are used, each dog receiving the test substance by oral administration via nasogastric tube to the stomach (NG) administration, sublingual administration (SL), and by intravenous (IV) administration. There is a “wash-out” period of at least two weeks between each type of administration. Blood samples are drawn as follows:
A single NG dose of 0.14 mg/kg (under a volume of 5 ml/kg and a solution concentration of 0.028 mg/mL) is administered.
After a wash-out period of at least 2 weeks, dogs are sedated using propofol (6.5 mg/kg IV). They will be then given a single sublingual dose of 0.14 mg/kg (under a volume of 0.056 mL/kg and a solution concentration of 2.5 mg/mL).
After a wash-out period of at least 2 weeks, dogs are given a single IV dose of 0.14 mg/kg (under a volume of 1 mL/kg, bolus of approximately 30 sec, and a solution concentration of 0.14 mg/mL).
Blood sampling was designed to minimize animal suffering and to ensure the quality of the biological samples, and was adapted from basic procedures commonly used in studies performed in dogs. Serial blood samples (1 tube of approximately 5 mL) are collected from a jugular vein using vacuum tubes containing lithium heparin. After sealing each tube, the blood samples are manually agitated and stored on ice until centrifugation (within 30 minutes of sampling). The samples are centrifuged at 1500 g, at 4° C., for 10 minutes. The entire resultant plasma obtained from each tube is immediately transferred to suitably labeled polypropylene tubes (3 aliquots of plasma of at least 500 μl each), which are stored upright at approximately −80° C. and protected from light until bioanalysis.
The dogs are fasted overnight before each administration, and food is given to the dogs 4 hours after each treatment. […] In each of the three routes, a potassium phosphate buffer (pH 7.4) is used as the vehicle.
As referred to in Example 4, a study was designed in order to assess the effects of the compositions and methods of the invention. […] The pharmacokinetic parameters were then calculated. A summary of the study design is as follows:
Blood was collected in a fasted condition for all three routes of administration. […] Briefly, the method involved liquid-liquid extraction with hexane. The extracts were injected using an HPLC system and an API4000® (Applied Biosystems) for the MS/MS detection, with an “Onyx monolithic Phenomenex C18 100×3.0 mm” column.

[5] = iv, Cyclobenzaprine plasma concentration
[6] = po, Cyclobenzaprine plasma concentration

In the case of `CN(C)CCC=C1c2ccccc2C=Cc2ccccc21` [cyclobenzaprine HCl], the “acid dissociation constant (pKa) for the amine group” value [1] is listed as “approximately 8.5”, the pH value ([2]; 10 g added to 100 mL Phosphate Buffer Solution pH 7.4) is listed as 6.43 and the pH value ([2]; 10 g added to 100 mL purified water) is listed as 3.31. The pH value ([2]; 15 g added to 100 mL Phosphate Buffer Solution pH 7.4) was 6.29, the pH value ([2]; 15 g added to 100 mL purified water) was 3.24 and the pH value ([2]; 20 g added to 100 mL Phosphate Buffer Solution pH 7.4) was 6.21. For the same molecule, the pH value ([2]; 20 g added to 100 mL purified water) was 3.16, the pH value ([2]; 25 g added to 100 mL Phosphate Buffer Solution pH 7.4) was 6.15 and the pH value ([2]; 25 g added to 100 mL purified water) was 3.11. For the same molecule, the pH value ([2]; 30 g added to 100 mL Phosphate Buffer Solution pH 7.4) was 6.10, the pH value ([2]; 30 g added to 100 mL purified water) was 3.07 and the “solubility state in solution” value ([2]; […] at 7.4 containing K2HPO4 or KH2PO4) was “close to its saturation point”. The AUCt (in vivo [3]) was 22.78 ng·h/mL, the “Bioavailability F % IV without propofol vs sublingual with propofol” value (in vivo [3]) was 197.0% and the Cmax (in vivo [3]) was 92.23 ng/mL. For the same molecule, the Tmax (in vivo [3]) was 10 min, the AUC(0-t) (in vivo [3]) was 17.4 ng·h/mL and the Cmax (in vivo [3]; Cmax) was 75.6 ng/mL. The AUCt (in vivo [3]; iv) was 11.56 ng·h/mL, the Cmax (in vivo [3]; iv) was 40.10 ng/mL and the Tmax (in vivo [3]; iv) was 5 min. It also gave an AUC(0-t) (in vivo [3]; iv) of 7.67 ng·h/mL, a Cmax (in vivo [3]; iv, Cmax) of 26.8 ng/mL and an AUC(0-inf) (in vivo [4]; iv, AUCinf) of 44.9 ± 4.15 ng·h/mL. It also gave an AUC(0-t) (in vivo [4]; iv, AUCt) of 43.5 ng·h/mL, a clearance (in vivo [4]; iv, Cl) of 52.3 mL/min/kg and a concentration at 10 min (in vivo [4]; [5]) of 21.1 ng/mL. The concentration at 20 min (in vivo [4]; [5]) was 17.3 ng/mL, the concentration at 0.5 h (in vivo [4]; [5]) was 14.3 ng/mL and the concentration at 1 h (in vivo [4]; [5]) was 9 ng/mL. For the same molecule, the concentration at 2 h (in vivo [4]; [5]) was 6.5 ng/mL, the concentration at 3 h (in vivo [4]; [5]) was 4.43 ng/mL and the concentration at 24 h (in vivo [4]; [5]) was 0.1 ng/mL. For the same molecule, the “Cl (Cl/F)” value (in vivo [4]; po) was 1206 mL/min/kg, the Kel (in vivo [4]; po) was 0.4782 h⁻¹ and the CL/F (in vivo [4]; po, Cl (Cl/F)) was 1210 mL/min/kg. It also gave a concentration at 6 h (in vivo [4]; [6]) of 0.15 ng/mL, a concentration at 8 h (in vivo [4]; [6]) of 0.126 ng/mL and a concentration at 10 h (in vivo [4]; [6]) of 0.112 ng/mL. For the same molecule, the Vd/F (in vivo [4]; po, Vd (Vd/F)) was 151 L/kg and the half-life (in vivo [4]; po, t1/2) was 86.9 min.
